Measurements published in ChEMBL document CHEMBL5303573, “Mapping human microbiome drug metabolism by gut bacteria and their genes” (Nature, 2019).

Columns and labels:
[1] = The drug is tested on Ruminococcus lactaris strain: ATCC29176 for biotransformation. The drug concentrations were measured before and after a 12-h incubation by liquid-chromatography-coupled mass spectrometry (LC–MS); conditions: 2 µM
[2] = bacteroides eggerthii, 12 h, 2 µM
Description: The drug is tested on Bacteroides eggerthii strain: DSM20697 for biotransformation. The drug concentrations were measured before and after a 12-h incubation by liquid-chromatography-coupled mass spectrometry (LC–MS)

[3] = anaerostipes sp., 12 h, 2 µM
Description: The drug is tested on Anaerostipes sp. strain: fecal isolate for biotransformation. The drug concentrations were measured before and after a 12-h incubation by liquid-chromatography-coupled mass spectrometry (LC–MS)

[4] = The drug is tested on Collinsella intestinalis strain: DSM13280 for biotransformation. The drug concentrations were measured before and after a 12-h incubation by liquid-chromatography-coupled mass spectrometry (LC–MS); conditions: 2 µM
[5] = The drug is tested on Anaerococcus hydrogenalis strain: DSM7454 for biotransformation. The drug concentrations were measured before and after a 12-h incubation by liquid-chromatography-coupled mass spectrometry (LC–MS); conditions: 2 µM
[6] = The drug is tested on Enterococcus faecalis strain: V583 for biotransformation. The drug concentrations were measured before and after a 12-h incubation by liquid-chromatography-coupled mass spectrometry (LC–MS); conditions: 2 µM
[7] = akkermansia muciniphila, 12 h, 2 µM
Description: The drug is tested on Akkermansia muciniphila strain: ATCC BAA-835 for biotransformation. The drug concentrations were measured before and after a 12-h incubation by liquid-chromatography-coupled mass spectrometry (LC–MS)

[8] = bacteroides intestinalis, 12 h, 2 µM
Description: The drug is tested on Bacteroides intestinalis strain: DSM17393 for biotransformation. The drug concentrations were measured before and after a 12-h incubation by liquid-chromatography-coupled mass spectrometry (LC–MS)

[9] = The drug is tested on Blautia luti strain: DSM14534 for biotransformation. The drug concentrations were measured before and after a 12-h incubation by liquid-chromatography-coupled mass spectrometry (LC–MS); type: ADME; design: dose 2 uM, timepoint 0 vs 12 hours; conditions: 2 µM
[10] = The drug is tested on Ruminococcus torques strain: ATCC27756 for biotransformation. The drug concentrations were measured before and after a 12-h incubation by liquid-chromatography-coupled mass spectrometry (LC–MS); type: ADME; design: dose 2 uM, timepoint 0 vs 12 hours; conditions: 2 µM
[11] = The drug is tested on Bacteroides vulgatus strain: ATCC8482 for biotransformation. The drug concentrations were measured before and after a 12-h incubation by liquid-chromatography-coupled mass spectrometry (LC–MS); conditions: phocaeicola vulgatus, 2 µM
[12] = The drug is tested on Bacteroides cellulosilyticus strain: DSM14838 for biotransformation. The drug concentrations were measured before and after a 12-h incubation by liquid-chromatography-coupled mass spectrometry (LC–MS); conditions: 2 µM
[13] = bacteroides fragilis, 12 h, 2 µM
Description: The drug is tested on Bacteroides fragilis strain: NCTC 9343 for biotransformation. The drug concentrations were measured before and after a 12-h incubation by liquid-chromatography-coupled mass spectrometry (LC–MS)

[14] = The drug is tested on Bacteroides sp. WH2 strain: WH2 for biotransformation. The drug concentrations were measured before and after a 12-h incubation by liquid-chromatography-coupled mass spectrometry (LC–MS); conditions: bacteroides sp. wh2, 12 h, 2 µM
[15] = The drug is tested on Anaerotruncus colihominis strain: DSM17241 for biotransformation. The drug concentrations were measured before and after a 12-h incubation by liquid-chromatography-coupled mass spectrometry (LC–MS); conditions: 2 µM
[16] = The drug is tested on Bacteroides coprophilus strain: DSM18228 for biotransformation. The drug concentrations were measured before and after a 12-h incubation by liquid-chromatography-coupled mass spectrometry (LC–MS); conditions: 2 µM
[17] = The drug is tested on Clostridium symbiosum strain: ATCC14940 for biotransformation. The drug concentrations were measured before and after a 12-h incubation by liquid-chromatography-coupled mass spectrometry (LC–MS); conditions: 2 µM
[18] = The drug is tested on Bacteroides fragilis strain: ATCC43859 for biotransformation. The drug concentrations were measured before and after a 12-h incubation by liquid-chromatography-coupled mass spectrometry (LC–MS); conditions: 2 µM
[19] = The drug is tested on Bifidobacterium ruminantium strain: fecal isolate for biotransformation. The drug concentrations were measured before and after a 12-h incubation by liquid-chromatography-coupled mass spectrometry (LC–MS); conditions: 2 µM
[20] = The drug is tested on Clostridium scindens strain: ATCC35704 for biotransformation. The drug concentrations were measured before and after a 12-h incubation by liquid-chromatography-coupled mass spectrometry (LC–MS); conditions: 2 µM
[21] = The drug is tested on Eubacterium rectale strain: ATCC33656 for biotransformation. The drug concentrations were measured before and after a 12-h incubation by liquid-chromatography-coupled mass spectrometry (LC–MS); conditions: agathobacter rectalis, 2 µM
[22] = The drug is tested on Collinsella aerofaciens strain: ATCC25986 for biotransformation. The drug concentrations were measured before and after a 12-h incubation by liquid-chromatography-coupled mass spectrometry (LC–MS); conditions: 2 µM
[23] = The drug is tested on Subdoligranulum variabile strain: DSM15176 for biotransformation. The drug concentrations were measured before and after a 12-h incubation by liquid-chromatography-coupled mass spectrometry (LC–MS); conditions: 2 µM
[24] = victivallis vadensis, 12 h, 2 µM
Description: The drug is tested on Victivallis vadensis strain: ATCC BAA-548 for biotransformation. The drug concentrations were measured before and after a 12-h incubation by liquid-chromatography-coupled mass spectrometry (LC–MS)

[25] = The drug is tested on Eubacterium ventriosum strain: ATCC27560 for biotransformation. The drug concentrations were measured before and after a 12-h incubation by liquid-chromatography-coupled mass spectrometry (LC–MS); type: ADME; design: dose 2 uM, timepoint 0 vs 12 hours; conditions: 2 µM
[26] = bifidobacterium adolescentis, 12 h, 2 µM
Description: The drug is tested on Bifidobacterium adolescentis strain: ATCC 15703 for biotransformation. The drug concentrations were measured before and after a 12-h incubation by liquid-chromatography-coupled mass spectrometry (LC–MS)

[27] = The drug is tested on Bacteroides pectinophilus strain: ATCC43243 for biotransformation. The drug concentrations were measured before and after a 12-h incubation by liquid-chromatography-coupled mass spectrometry (LC–MS); conditions: 2 µM
[28] = parabacteroides johnsonii, 12 h, 2 µM
Description: The drug is tested on Parabacteroides johnsonii strain: DSM18315 for biotransformation. The drug concentrations were measured before and after a 12-h incubation by liquid-chromatography-coupled mass spectrometry (LC–MS)

[29] = segatella copri, 12 h, 2 µM
Description: The drug is tested on Prevotella copri strain: DSM18205 for biotransformation. The drug concentrations were measured before and after a 12-h incubation by liquid-chromatography-coupled mass spectrometry (LC–MS)

[30] = The drug is tested on Edwardsiella tarda strain: ATCC23685 for biotransformation. The drug concentrations were measured before and after a 12-h incubation by liquid-chromatography-coupled mass spectrometry (LC–MS); conditions: 2 µM
[31] = The drug is tested on Providencia stuartii strain: ATCC25827 for biotransformation. The drug concentrations were measured before and after a 12-h incubation by liquid-chromatography-coupled mass spectrometry (LC–MS); conditions: 2 µM
[32] = The drug is tested on Coprococcus comes strain: ATCC27758 for biotransformation. The drug concentrations were measured before and after a 12-h incubation by liquid-chromatography-coupled mass spectrometry (LC–MS); type: ADME; design: dose 2 uM, timepoint 0 vs 12 hours; conditions: 2 µM
[33] = The drug is tested on Eubacterium hallii strain: DSM3353 for biotransformation. The drug concentrations were measured before and after a 12-h incubation by liquid-chromatography-coupled mass spectrometry (LC–MS); conditions: anaerobutyricum hallii, 2 µM
[34] = The drug is tested on Bacteroides xylanisolvens strain: DSM18836 for biotransformation. The drug concentrations were measured before and after a 12-h incubation by liquid-chromatography-coupled mass spectrometry (LC–MS); conditions: 2 µM
[35] = The drug is tested on Clostridium sporogenes strain: ATCC15579 for biotransformation. The drug concentrations were measured before and after a 12-h incubation by liquid-chromatography-coupled mass spectrometry (LC–MS); conditions: 2 µM
[36] = The drug is tested on Ruminococcus gnavus strain: ATCC29149 for biotransformation. The drug concentrations were measured before and after a 12-h incubation by liquid-chromatography-coupled mass spectrometry (LC–MS); conditions: mediterraneibacter gnavus, 2 µM
[37] = The drug is tested on Dorea formicigenerans strain: ATCC27755 for biotransformation. The drug concentrations were measured before and after a 12-h incubation by liquid-chromatography-coupled mass spectrometry (LC–MS); conditions: 2 µM
[38] = The drug is tested on Clostridium ramosum strain: DSM1402 for biotransformation. The drug concentrations were measured before and after a 12-h incubation by liquid-chromatography-coupled mass spectrometry (LC–MS); conditions: thomasclavelia ramosa, 2 µM
[39] = The drug is tested on Bacteroides uniformis strain: ATCC8492 for biotransformation. The drug concentrations were measured before and after a 12-h incubation by liquid-chromatography-coupled mass spectrometry (LC–MS); conditions: 2 µM

Measured: Bacterial Biotransformation

CCOC(=O)[C@H](CCc1ccccc1)N[C@@H](C)C(=O)N1[C@H](C(=O)O)C[C@@H]2CCC[C@@H]21
Compound metabolized: [11] | [12] | [18] | [34] | [39]
Compound NOT metabolized: all other assays above
